{"source": "patent US11363816B2", "about": "“4-amino-6-(heterocyclic)picolinates and 6-amino-2-(heterocyclic)pyramidine-4-carboxylates and their use as herbicides” (Dow AgroSciences LLC, priority 2017, dated 2022)", "assay_type_in_all_cases": "in vivo", "key": {"[1]": {"system": "PAPRH=Papaver rhoeas L. (common poppy)", "assay": "Postemergence field trial, Banares, Spain", "procedure": "(§1) Field trials were established in Spain (Banares and Granon) and Germany (Bielefeld) to evaluate the efficacy of Compound 5, Compound 6, and Compound 7. Trials were designed as randomized complete blocks with three to four replicates. Trials were established in winter wheat with natural weed population with plot sizes of 2-2.5 meters (m) by 6-8 m (width×length). The crops were grown using normal cultural practices for fertilization, seeding, and maintenance to ensure good growth of the crop. All herbicide treatments were applied post-emergence with applications made to the crops at the BBCH 21 to 23 growth stage. Herbicides were applied with backpack or bicycle sprayers using air as a propellant. The sprayers utilized flat fan air-induction spray nozzles calibrated to deliver a uniform spray pattern that provided thorough coverage of the foliage using a 200 L/ha spray volume. All treatments were applied with methylated seed oil (MSO) at 1.25% v/v. Phytotoxicity to the weeds was assessed visually at several intervals after application as percent overall control, compared to an untreated control plot. In general, three to four replicates were assessed for each treatment. All treatment results are an average of three or four replicates. Compound 5, Compound 6, and Compound 7 were applied as emulsifiable concentrate (EC) formulations at 100 g ae/L EC, respectively."}, "[2]": {"system": "FUMOF=Fumaria officinalis (common fumitory)", "assay": "Postemergence field trial, Banares, Spain", "procedure": "as §1"}, "[3]": {"system": "VERHE=Veronica hederifolia (ivyleaved speedwell)", "assay": "Postemergence field trial, Banares, Spain", "procedure": "as §1"}, "[4]": {"system": "SINAR=Sinapis arvensis L. (wild mustard)", "assay": "Postemergence field trial, Granon, Spain (Table 7)", "procedure": "as §1"}, "[5]": {"system": "PAPRH=Papaver rhoeas L. (common poppy)", "assay": "Postemergence field trial, Granon, Spain (Table 7)", "procedure": "as §1"}, "[6]": {"system": "CENCY=Centaurea cyanus (cornflower)", "assay": "Postemergence field trial, Bielefed, Germany", "procedure": "as §1"}, "[7]": {"system": "PAPRH=Papaver rhoeas L. (common poppy)", "assay": "Postemergence field trial, Bielefed, Germany", "procedure": "as §1"}, "[8]": {"system": "VERSS=Veronica spp (speedwell)", "assay": "Postemergent herbicidal activity in the greenhouse", "settings": "21-28 DAAA", "procedure": "(§2) Seeds of the desired test plant species were planted in Sun Gro MetroMix® 306 planting mixture, which typically has a pH of 6.0 to 6.8 and an organic matter content of about 30 percent, in plastic pots with a surface area of 103.2 square centimeters (cm^2). When required to ensure good germination and healthy plants, a fungicide treatment and/or other chemical or physical treatment was applied. The plants were grown for 7-36 days (d) in a greenhouse with an approximate 14 hour (h) photoperiod which was maintained at about 18° C. during the day and 17° C. during the night. Nutrients and water were added on a regular basis and supplemental lighting was provided with overhead metal halide 1000-Watt lamps as necessary. The plants were employed for testing when they reached the second or third true leaf stage.\n(§3) An aliquot of formulated Compound 5 (100 grams acid equivalent per liter (g ae/L); emusifiable concentrate (EC)), Compound 6 (100 g ae/L; EC) or Compound 7 (100 g ae/L; EC) was placed in a 25 mL glass vial and diluted in a volume of 1.25% (volume per volume (v/v)) aqueous Actirob B esterified rapeseed oil to obtain a stock solution. The concentrated stock solutions were diluted with an aqueous mixture of 1.25% v/v of aqueous Actirob B esterified rapeseed oil to provide the appropriate application rates. Compound requirements are based upon a 12 mL application volume at a rate of 187 liters per hectare (L/ha). Formulated compounds were applied to the plant material with an overhead Mandel track sprayer equipped with 8002E nozzles calibrated to deliver 187 L/ha over an application area of 0.503 square meters (m^2) at a spray height of 18 inches ([…]) above average plant canopy. Control plants were sprayed in the same manner with the solvent blank.\n(§4) The treated plants and control plants were placed in a greenhouse as described above and watered by subirrigation to prevent washoff of the test compounds. After 20-22 d, the condition of the test plants as compared with that of the control plants was determined visually and scored on a scale of 0 to 100 percent where 0 corresponds to no injury and 100 corresponds to complete kill. […]\n(§5) The values reported are means."}, "[9]": {"system": "CIRAR=Cirsium arvense (L.) Scop. (Canada thistle)", "assay": "Postemergent herbicidal activity in the greenhouse", "settings": "21-28 DAAA", "procedure": "as §2, §3, §4, §5"}, "[10]": {"system": "MATCH=Matricaria recutita L. (wild chamomile)", "assay": "Postemergent herbicidal activity in the greenhouse", "settings": "21-28 DAAA", "procedure": "as §2, §3, §4, §5"}, "[11]": {"system": "SINAR=Sinapis arvensis L. (wild mustard)", "assay": "Postemergent herbicidal activity in the greenhouse", "settings": "21-28 DAAA", "procedure": "as §2, §3, §4, §5"}, "[12]": {"system": "Res-PAPRH=Papaver rhoeas L. (common poppy) resistant to tribenuron and thifensulfuron (ALS) and 2,4-D", "assay": "Postemergent herbicidal activity in the greenhouse", "settings": "21-28 DAAA", "procedure": "as §2, §3, §4, §5"}, "[13]": {"system": "KCHSC=Kochia scoparia (L.) Schrad. (Kochia)", "assay": "Postemergent herbicidal activity in the greenhouse", "settings": "21-28 DAAA", "procedure": "as §2, §3, §4, §5"}, "[14]": {"system": "POLCO=Polygonum convolvulus L. (wild buckwheat)", "assay": "Postemergent herbicidal activity in the greenhouse", "settings": "21-28 DAAA", "procedure": "as §2, §3, §4, §5"}, "[15]": {"system": "ANTAR=Anthemis arvensis (field chamomile)", "assay": "Postemergent herbicidal activity in the greenhouse", "settings": "21-28 DAAA", "procedure": "as §2, §3, §4, §5"}, "[16]": {"system": "PAPRH=Papaver rhoeas L. (common poppy)", "assay": "Postemergent herbicidal activity in the greenhouse", "settings": "21-28 DAAA", "procedure": "as §2, §3, §4, §5"}, "[17]": {"system": "MATIN=Matricaria inodora (scentless mayweed)", "assay": "Postemergent herbicidal activity in the greenhouse", "settings": "21-28 DAAA", "procedure": "as §2, §3, §4, §5"}, "[18]": {"system": "CHEAL=Chenopodium album L. (common lambsquarters)", "assay": "Postemergent herbicidal activity in the greenhouse", "settings": "21-28 DAAA", "procedure": "as §2, §3, §4, §5"}}}
{"smiles": "N#CCOC(=O)c1nc(-c2ccc3cc[nH]c3c2F)c(F)c(N)c1Cl", "note": "[Compound 6, cyanomethyl 4-amino-3-chloro-5-fluoro-6-(7-fluoro-1H-indol-6-yl)picolinate]", "values": [{"measurement": "Percent (%) Visual Control PAPRH 66DAAA", "setting": "[1]; 5 g ae/ha", "value": 60, "unit": "%"}, {"measurement": "Percent (%) Visual Control PAPRH 66DAAA", "setting": "[1]; 10 g ae/ha", "value": 75, "unit": "%"}, {"measurement": "Percent (%) Visual Control PAPRH 66DAAA", "setting": "[1]; 20 g ae/ha", "value": 91, "unit": "%"}, {"measurement": "Percent (%) Visual Control FUMOF 83DAAA", "setting": "[2]; 5 g ae/ha", "value": 41.7, "unit": "%"}, {"measurement": "Percent (%) Visual Control FUMOF 83DAAA", "setting": "[2]; 10 g ae/ha", "value": 69.3, "unit": "%"}, {"measurement": "Percent (%) Visual Control FUMOF 83DAAA", "setting": "[2]; 20 g ae/ha", "value": 96, "unit": "%"}, {"measurement": "Percent (%) Visual Control VERHE 66DAAA", "setting": "[3]; 5 g ae/ha", "value": 60, "unit": "%"}, {"measurement": "Percent (%) Visual Control VERHE 66DAAA", "setting": "[3]; 10 g ae/ha", "value": 81.7, "unit": "%"}, {"measurement": "Percent (%) Visual Control VERHE 66DAAA", "setting": "[3]; 20 g ae/ha", "value": 91, "unit": "%"}, {"measurement": "Percent (%) Visual Control SINAR 48DAAA", "setting": "[4]; 5 g ae/ha", "value": 82.7, "unit": "%"}, {"measurement": "Percent (%) Visual Control SINAR 48DAAA", "setting": "[4]; 10 g ae/ha", "value": 95, "unit": "%"}, {"measurement": "Percent (%) Visual Control SINAR 48DAAA", "setting": "[4]; 20 g ae/ha", "value": 95.2, "unit": "%"}, {"measurement": "Percent (%) Visual Control PAPRH 68DAAA", "setting": "[5]; 5 g ae/ha", "value": 55, "unit": "%"}, {"measurement": "Percent (%) Visual Control PAPRH 68DAAA", "setting": "[5]; 10 g ae/ha", "value": 69.3, "unit": "%"}, {"measurement": "Percent (%) Visual Control PAPRH 68DAAA", "setting": "[5]; 20 g ae/ha", "value": 85.3, "unit": "%"}, {"measurement": "Percent (%) Visual Control CENCY 85DAAA", "setting": "[6]; 5 g ae/ha", "value": 60, "unit": "%"}, {"measurement": "Percent (%) Visual Control CENCY 85DAAA", "setting": "[6]; 10 g ae/ha", "value": 92.5, "unit": "%"}, {"measurement": "Percent (%) Visual Control CENCY 85DAAA", "setting": "[6]; 20 g ae/ha", "value": 97, "unit": "%"}, {"measurement": "Percent (%) Visual Control PAPRH 85DAAA", "setting": "[7]; 5 g ae/ha", "value": 94.5, "unit": "%"}, {"measurement": "Percent (%) Visual Control PAPRH 85DAAA", "setting": "[7]; 10 g ae/ha", "value": 97.3, "unit": "%"}, {"measurement": "Percent (%) Visual Control PAPRH 85DAAA", "setting": "[7]; 20 g ae/ha", "value": 99.8, "unit": "%"}, {"measurement": "Percent (%) Visual Control VERSS", "setting": "[8]; 10 g ae/ha", "value": 86.3, "unit": "%"}, {"measurement": "Percent (%) Visual Control VERSS", "setting": "[8]; 20 g ae/ha", "value": 86.5, "unit": "%"}, {"measurement": "Percent (%) Visual Control CIRAR", "setting": "[9]; 10 g ae/ha", "value": 50, "unit": "%"}, {"measurement": "Percent (%) Visual Control CIRAR", "setting": "[9]; 20 g ae/ha", "value": 58.3, "unit": "%"}, {"measurement": "Percent (%) Visual Control MATCH", "setting": "[10]; 10 g ae/ha", "value": 57, "unit": "%"}, {"measurement": "Percent (%) Visual Control MATCH", "setting": "[10]; 20 g ae/ha", "value": 64, "unit": "%"}, {"measurement": "Percent (%) Visual Control SINAR", "setting": "[11]; 10 g ae/ha", "value": 90, "unit": "%"}, {"measurement": "Percent (%) Visual Control SINAR", "setting": "[11]; 20 g ae/ha", "value": 96, "unit": "%"}, {"measurement": "Percent (%) Visual Control Res-PAPRH", "setting": "[12]; 10 g ae/ha", "value": 95, "unit": "%"}, {"measurement": "Percent (%) Visual Control Res-PAPRH", "setting": "[12]; 20 g ae/ha", "value": 100, "unit": "%"}, {"measurement": "Percent (%) Visual Control KCHSC", "setting": "[13]; 10 g ae/ha", "value": 73.3, "unit": "%"}, {"measurement": "Percent (%) Visual Control KCHSC", "setting": "[13]; 20 g ae/ha", "value": 84.3, "unit": "%"}, {"measurement": "Percent (%) Visual Control POLCO", "setting": "[14]; 10 g ae/ha", "value": 98.3, "unit": "%"}, {"measurement": "Percent (%) Visual Control POLCO", "setting": "[14]; 20 g ae/ha", "value": 100, "unit": "%"}, {"measurement": "Percent (%) Visual Control ANTAR", "setting": "[15]; 10 g ae/ha", "value": 100, "unit": "%"}, {"measurement": "Percent (%) Visual Control ANTAR", "setting": "[15]; 20 g ae/ha", "value": 98.3, "unit": "%"}, {"measurement": "Percent (%) Visual Control PAPRH", "setting": "[16]; 10 g ae/ha", "value": 100, "unit": "%"}, {"measurement": "Percent (%) Visual Control PAPRH", "setting": "[16]; 20 g ae/ha", "value": 100, "unit": "%"}, {"measurement": "Percent (%) Visual Control MATIN", "setting": "[17]; 10 g ae/ha", "value": 98.3, "unit": "%"}, {"measurement": "Percent (%) Visual Control MATIN", "setting": "[17]; 20 g ae/ha", "value": 100, "unit": "%"}, {"measurement": "Percent (%) Visual Control CHEAL", "setting": "[18]; 10 g ae/ha", "value": 100, "unit": "%"}, {"measurement": "Percent (%) Visual Control CHEAL", "setting": "[18]; 20 g ae/ha", "value": 100, "unit": "%"}]}
